Entries after “also recorded” stand apart in the source; their conditions may differ.
What was measured:
calf thymus DNA = test: DNA binding constants by fluorescence quenching, calf thymus DNA
Procedure: Apparent absolute DNA binding constants for 1-22 and related agents including luzopeptin A were obtained by measurement of the fluorescence quenching upon titration addition of calf thymus DNA or the deoxyoligonucleotides 5'-d(GCXXGC)2 where XX=AT, TA, GC, and CG. For each agent, the characteristic fluorescence excitation and emission spectra were recorded in 10 mM Tris-HCl, 75 mM NaCl (pH 7.4) buffer, FIG. 6. For the DNA binding assays which quantitate the fluorescence quenching, excitation outside the absorbance range of DNA was employed and the most intense fluorescence emission at a longer wavelength monitored. For assay of the DNA-induced fluorescence quenching of the agents, a 2 mL buffer solution of Tris-HCl (pH 7.4) and 75 mM NaCl was employed. […]
Despite these precautions, the fluorescence for a number of the analog solutions decreased for several of analogs (11, 14, 17, 21 and 22) and the quality of the binding constants for these should be viewed with caution. […] The titration fluorescence quenching was analyzed by Scatchard analysis (Scatchard, G. Ann. N. Y. Acad. Sci. 1949, 51, 660) with the following equation: rb /c=Kb n-Kb rb where rb is the number of agent molecules bound per DNA base-pair, c is the free drug concentration, Kb is the apparent association constant, and n is the number of agent binding sites per base-pair. […]

5'-d(GCATGC)2 = test: DNA binding by fluorescence quenching, 5'-d(GCATGC)2; conditions: for DNA binding affinity, in words: 5'-d(GCATGC)2, relative to 1 and 4
Procedure: (§1) Apparent absolute DNA binding constants for 1-22 and related agents including luzopeptin A were obtained by measurement of the fluorescence quenching upon titration addition of calf thymus DNA or the deoxyoligonucleotides 5'-d(GCXXGC)2 where XX=AT, TA, GC, and CG. For each agent, the characteristic fluorescence excitation and emission spectra were recorded in 10 mM Tris-HCl, 75 mM NaCl (pH 7.4) buffer, FIG. 6. For the DNA binding assays which quantitate the fluorescence quenching, excitation outside the absorbance range of DNA was employed and the most intense fluorescence emission at a longer wavelength monitored. For assay of the DNA-induced fluorescence quenching of the agents, a 2 mL buffer solution of Tris-HCl (pH 7.4) and 75 mM NaCl was employed. For titration, small aliquots of DNA were added to solutions of the agents in Tris-HCl buffer (pH 7.4).
(§2) Despite these precautions, the fluorescence for a number of the analog solutions decreased for several of analogs (11, 14, 17, 21 and 22) and the quality of the binding constants for these should be viewed with caution. […] The titrations were carried out with 15 min time intervals between DNA additions to allow binding equilibration. […] The titration fluorescence quenching was analyzed by Scatchard analysis (Scatchard, G. Ann. N. Y. Acad. Sci. 1949, 51, 660) with the following equation: rb /c=Kb n-Kb rb where rb is the number of agent molecules bound per DNA base-pair, c is the free drug concentration, Kb is the apparent association constant, and n is the number of agent binding sites per base-pair.
A pronounced downward curvature in an infinite lattice such as calf thymus DNA is recognized to arise in part from neighbor exclusion where the binding of an agent excludes the subsequent binding at nearby sites. This exclusion manifests itself in the plot by a reduction in the apparent binding constant as the DNA lattice approaches saturation and the probability of finding a free site is diminished. In the calf thymus DNA studies, the binding also entails multiple classes of independent binding sites or modes. […]

[1] = test system: calf thymus DNA and 5'-d(GCATGC)2; test: DNA binding affinity trends over calf thymus DNA and 5'-d(GCATGC)2 (fluorescence quenching)
Procedure: as §1, §2
A pronounced downward curvature in an infinite lattice such as calf thymus DNA is recognized to arise in part from neighbor exclusion where the binding of an agent excludes the subsequent binding at nearby sites. This exclusion manifests itself in the plot by a reduction in the apparent binding constant as the DNA lattice approaches saturation and the probability of finding a free site is diminished. In the calf thymus DNA studies, the binding also entails multiple classes of independent binding sites or modes. For simplicity, a linear fit of the high affinity binding sites was used to determine the binding constant attributable to bis-intercalation. For the deoxyoligonucleotides, the curvature can be more simply attributed to multiple classes of independent binding sites or binding modes. There are a number of mathematical methods to deconvolute the curved plot into such individual binding events. In the deoxyoligonucleotide studies, a non-linear fit described by Feldman was also used to deconvolute the curves. The model assumes one ligand with two binding types or sites. Since the number of binding sites is limited, we have interpreted this to indicate a high affinity bis-intercalation and a lower affinity binding potentially involving mono-intercalation. The formula was fit using the JMP^22 statistical fitting program using an initial approximation of the two n values and fitting for K1 and K2.
After 5 min of stirring, an initial fluorescence reading was taken with minimum exposure to the excitation beam. […] The excitation and emission wavelengths used for each analog varied and can be found in FIG. 6. The results of the titration were analyzed by Scatchard analysis. The linear portion of the Scatchard plot was used to determine the high affinity binding constants. In the case of the deoxyoligonucleotide study, a non-linear fit of the curve as described in the text was also used to determine the high affinity binding constant (Feldman, H. A. Anal. Biochem. 1972, 48, 317).

[2] = biological target: HIV-1 reverse transcriptase (Human immunodeficiency virus type 1 group M subtype B, UniProt P04585); test: Inhibition of HIV-1 reverse transcriptase; assay type: biochemical
Procedure: The assay was performed according to an available procedure (Goldman, M. E.; Salituro, G. S.; Bowen, J. A.; Williamson, J. M.; Zink, D. L.; Schleif, W. A.; Emini, E. A. Mol. Pharmacol. 1990, 38, 20) with slight modification. A 45 L solution of reaction buffer containing 55 mM Tris·HCl, pH 8.2, 80 mM potassium chloride, 12 mM MgCl2, 1 mM DTT, 50 M EGTA, 2.5 g/mL rA·dT, 0.5 Ci of [^3 H]TTP, 10 M TTP, 1 mg/mL BSA, and 0.01% Triton X-100 was added to a well in a filter cluster plate (Millipore MAHV N45). The reverse transcription reaction was initiated upon addition of the reverse transcriptase (1 unit; 1 unit=10 pmol of [^3 H]TMP incorporated/60 min at 37° C.). The plate was incubated at 37° C. for 90 min. The plate was then placed on ice and 200 µL of 13% trichloroacetic acid and 10 mM sodium pyrophosphate was added to each well. The plate was chilled for 2 h and the liquid vacuumed out through the filter using a Millipore manifold (Millipore MAVM 09601). The precipitate was washed with 1 M and 10 mM sodium pyrophosphate twice. The filter was punched out and placed in a scintillation vial. 4 mL of cocktail was added. Radioactivity was determined by liquid scintillation counting.
The effects of sandramycin and its analogs on HIV-1 reverse transcriptase were determined by incubating the agents and the rA·dT containing buffer at 25° C. for 30 min prior to addition of the reverse transcriptase. Reactions containing no agents were used as controls, and those lacking the transcriptase were used as blanks.

L1210 cell line = test: In vitro cytotoxic activity, L1210; assay type: cell-based
[3] = Solubility of the agents in assay buffer / water; assay type: physicochemical; conditions: aqueous Tris-HCl/NaCl buffer pH 7.4

Row | Molecule | DNA binding affinity, in words (5'-d(GCATGC)2) | DNA binding affinity, in words [1] | HIV-1 reverse transcriptase inhibition, in words [2] | cytotoxic potency, fold less potent than 1 (L1210 cell line) | solubility in the fluorescence quenching assay [3] | cytotoxic potency, fold less potent than 4 (L1210 cell line) | other results
1 | (N-(Isoquinolinyl-1-carbonyl)-D-Ser-Pip-Gly-Sar-NMe-Val)2 (Serine Hydroxyl) Dilactone [compound 22] | substantially less effective | comparable to that of the monointercalator 24 | much less effective | – | – | – | DNA binding affinity, in words (calf thymus DNA): comparable to 4
2 | CC(C)[C@H]1C(=O)OC[C@@H](NC(=O)c2cc3ccccc3cc2O)C(=O)N2CCCC[C@H]2C(=O)NCC(=O)N(C)CC(=O)N(C)[C@@H](C(C)C)C(=O)OC[C@@H](NC(=O)c2cc3ccccc3cc2O)C(=O)N2CCCC[C@H]2C(=O)NCC(=O)N(C)CC(=O)N1C [compound 5, (N-(3-Hydroxynaphthyl-2-carbonyl)-D-Ser-Pip-Gly-Sar-NMe-Val)2(Serine Hydroxyl) Dilactone] | – | substantially less effective than all agents in the series | much less effective | 10000 | not sufficiently soluble; also recorded: limited solubility | – | –
3 | (N-(Iso-quinolinyl-3-carbonyl)-D-Ser-Pip-Gly-Sar-NMe-Val)2 (Serine Hydroxyl) Dilactone [compound 21] | substantially less effective | comparable to that of the monointercalator 24 | much less effective | – | – | – | –
4 | CC(C)C1C(=O)OCC(NC(=O)c2cnc3ccccc3n2)C(=O)N2CCCCC2C(=O)NCC(=O)N(C)CC(=O)N(C)C(C(C)C)C(=O)OCC(NC(=O)c2cnc3ccccc3n2)C(=O)N2CCCCC2C(=O)NCC(=O)N(C)CC(=O)N1C [compound 18, (N-(Quinoxalyl-2-carbonyl)-D-Ser-Pip-Gly-Sar-NMe-Val)2 (Serine Hydroxyl) Dilactone] | – | – | roughly maintain the HIV-1 reverse transcriptase inhibitory potency of 1; also recorded: Comparable but slightly less potent inhibition | – | not sufficiently soluble; also recorded: limited solubility | approximately 10 | cytotoxic potency, fold less potent than 13 (L1210 cell line): approximately 10; cytotoxic potency, fold more potent than 19 (L1210 cell line): 300; fold less potent than sandramycin [2]: 3
5 | CC(C)[C@H]1C(=O)OC[C@@H](NC(=O)c2ccc3ccccc3c2)C(=O)N2CCCC[C@H]2C(=O)NCC(=O)N(C)CC(=O)N(C)[C@@H](C(C)C)C(=O)OC[C@@H](NC(=O)c2ccc3ccccc3c2)C(=O)N2CCCC[C@H]2C(=O)NCC(=O)N(C)CC(=O)N1C [compound 7] | – | substantially less effective than all agents in the series | much less effective | – | not sufficiently soluble; also recorded: limited solubility | 2000 | cytotoxic potency, fold less potent than 5 (L1210 cell line): 2
6 | CC(C)C1C(=O)OCC(NC(=O)c2ncccc2O)C(=O)N2CCCCC2C(=O)NCC(=O)N(C)CC(=O)N(C)C(C(C)C)C(=O)OCC(NC(=O)c2ncccc2O)C(=O)N2CCCCC2C(=O)NCC(=O)N(C)CC(=O)N1C (centres unmarked) [compound 8] | – | – | much less effective | 4000 | – | – | drop in DNA binding affinity (calf thymus DNA; removal of fused benzene ring): 1.7 kcal/mol; drop in DNA binding affinity (5'-d(GCATGC)2; 5'-d(GCATGC)2, removal of fused benzene ring): 2.3 to 2.6 kcal/mol

Source: patent publication US6329497A, “Sandramycin analogs” (The Scripps Research Institute, priority 1999, dated 2001)
